# Data as given in patent US20140348861A1, “SYNTHETIC PEPTIDES AND RANDOM COPOLYMERS FOR THE TREATMENT OF AUTOIMMUNE DISORDERS” (NATIONAL INSTITUTE OF IMMUNOLOGY, priority 2011, published 2014).
# Non-standard residues stand in square brackets, D forms with d. Primed or numbered codes have the meaning given here. No end group written: not given here. Kβ(3) = beta-amino acid residue (Lys analogue); Kβ″ = beta-amino acid residue (K); β3hK = NCCCC[C@H](N)CC(=O)O; β3hA = C[C@H](N)CC(=O)O; Yβ = β-tyrosine
# Tested on: SJL/J mice exhibiting MBP (85-109) induced relapsing remitting form of EAE
# Experiment: Therapeutic activity in MBP (85-109) induced relapsing remitting EAE, treatment from day 11
# Type: in vivo
# Conditions: SJL/J mice, RR EAE; for Therapeutic activity in comparison to GA (Therapeutic activity (Analogs) − Therapeutic activity GA) / Therapeutic activity in comparison to J5 (Therapeutic activity (Analogs) − Therapeutic activity (J5)): 0.1 mg daily for two weeks; for Therapeutic activity = % reduction in cumulative clinical disability score: synthetic peptides, 0.1 mg daily for two weeks from day 11 post-immunization
# Experimental: SJL/J and C57BL6/J mice procured from Jackson's laboratory (Bar Harbor, Me.) were maintained under standard housing conditions in the central animal facility at NII as per institutional ethical committee guidelines. 8-10 week old female SJL/J mice were used throughout the study.
# To induce RR EAE or chronic progressive EAE, SJL/J or C57BL6/J mice were immunized subcutaneously with 0.2 mg of MBP (85-109) or 0.1 mg MOG (35-55) emulsified in CFA and 200 ng of pertussis toxin was injected intraperitoneally on day 0 and day 2 so as to permeablize the blood brain barrier. All the animals in various experimental groups were scored daily for clinical disability on a scale of 0-6 where 0=no neurological symptoms, 1=limp tail, 2=weakness of hind limbs or ataxia, 3=incomplete paralysis of hind limbs, 4=complete paralysis of hind limbs, 5=complete paralysis of all four limbs, 6=dead. Diseased animals were provided easy access to food and water.
# GA, J91, J92, S101, S102, S103 for two weeks and scored for clinical disability.
substance,measurement,value
EKPKVEAYKAAAAPβ^3Aβ^3 [Analog S2],Therapeutic activity in comparison to GA (Therapeutic activity (Analogs) − Therapeutic activity GA),2.139%
same,Therapeutic activity in comparison to J5 (Therapeutic activity (Analogs) − Therapeutic activity (J5)),−1.818%
same,Therapeutic activity = % reduction in cumulative clinical disability score,33.48%
EKPKβ^3Vβ^3Eβ^3Aβ^3Yβ^3Kβ^3Aβ^3Aβ^3Aβ^3Aβ^3Pβ^3Aβ^3 [Analog S12],Therapeutic activity in comparison to GA (Therapeutic activity (Analogs) − Therapeutic activity GA),25.88%
same,Therapeutic activity in comparison to J5 (Therapeutic activity (Analogs) − Therapeutic activity (J5)),21.93%
same,Therapeutic activity = % reduction in cumulative clinical disability score,57.22%
Eβ^3Kβ^3Pβ^3Kβ^3Vβ^3EAYβ^3Kβ^3Aβ^3Aβ^3Aβ^3Aβ^3Pβ^3Aβ^3 [Analog S16],Therapeutic activity in comparison to GA (Therapeutic activity (Analogs) − Therapeutic activity GA),28.88%
same,Therapeutic activity in comparison to J5 (Therapeutic activity (Analogs) − Therapeutic activity (J5)),24.92%
same,Therapeutic activity = % reduction in cumulative clinical disability score,60.2139%
EβKβPKβ^3Vβ^3Eβ^3AβYβ^3Kβ^3AβAβAβAβ^3PAβ [Analog S79],Therapeutic activity in comparison to GA (Therapeutic activity (Analogs) − Therapeutic activity GA),28.77%
same,Therapeutic activity in comparison to J5 (Therapeutic activity (Analogs) − Therapeutic activity (J5)),24.81%
same,Therapeutic activity = % reduction in cumulative clinical disability score,60.11%
KVβEβAβYβKβ [Analog S70],Therapeutic activity in comparison to GA (Therapeutic activity (Analogs) − Therapeutic activity GA),−16.8984%
same,Therapeutic activity in comparison to J5 (Therapeutic activity (Analogs) − Therapeutic activity (J5)),−20.8556%
same,Therapeutic activity = % reduction in cumulative clinical disability score,14.4385%
KVβEβAβYβKβAβAβAβAβ [Analog S63],Therapeutic activity in comparison to GA (Therapeutic activity (Analogs) − Therapeutic activity GA),−9.305%
same,Therapeutic activity in comparison to J5 (Therapeutic activity (Analogs) − Therapeutic activity (J5)),−13.262%
same,Therapeutic activity = % reduction in cumulative clinical disability score,22.03%
"VEAYK (Peptide analog) [Analog J5c, reference compound]",Therapeutic activity in comparison to GA (Therapeutic activity (Analogs) − Therapeutic activity GA),−9.947%
same,Therapeutic activity in comparison to J5 (Therapeutic activity (Analogs) − Therapeutic activity (J5)),−13.9037%
same,Therapeutic activity = % reduction in cumulative clinical disability score,21.39%
EKPKVEAYKAAβAβAβPAβ [Analog S44],Therapeutic activity in comparison to GA (Therapeutic activity (Analogs) − Therapeutic activity GA),15.94%
same,Therapeutic activity in comparison to J5 (Therapeutic activity (Analogs) − Therapeutic activity (J5)),11.98%
same,Therapeutic activity = % reduction in cumulative clinical disability score,47.27%
Kβ^3Vβ^3EAYβ^3Kβ^3Aβ^3Aβ^3Aβ^3Aβ^3 [Analog S26],Therapeutic activity in comparison to GA (Therapeutic activity (Analogs) − Therapeutic activity GA),27.91%
same,Therapeutic activity in comparison to J5 (Therapeutic activity (Analogs) − Therapeutic activity (J5)),23.96%
same,Therapeutic activity = % reduction in cumulative clinical disability score,59.25%
VEAYKβ (VEAY[Kβ″]) [Analog S73],Therapeutic activity in comparison to GA (Therapeutic activity (Analogs) − Therapeutic activity GA),−10.0535%
same,Therapeutic activity in comparison to J5 (Therapeutic activity (Analogs) − Therapeutic activity (J5)),−14.0107%
same,Therapeutic activity = % reduction in cumulative clinical disability score,21.28%
KVEAYKβ^3 (KVEAY[β3hK]) [Analog S28],Therapeutic activity in comparison to GA (Therapeutic activity (Analogs) − Therapeutic activity GA),−7.38%
same,Therapeutic activity in comparison to J5 (Therapeutic activity (Analogs) − Therapeutic activity (J5)),−11.3369%
same,Therapeutic activity = % reduction in cumulative clinical disability score,23.96%
VEAYβKβ (VEA[Yβ][Kβ(3)]) [Analog S74],Therapeutic activity in comparison to GA (Therapeutic activity (Analogs) − Therapeutic activity GA),−9.947%
same,Therapeutic activity in comparison to J5 (Therapeutic activity (Analogs) − Therapeutic activity (J5)),−13.9037%
same,Therapeutic activity = % reduction in cumulative clinical disability score,21.39%
KVEAYKAAβ^3Aβ^3Aβ^3 (KVEAYKA[β3hA][β3hA][β3hA]) [Analog S19],Therapeutic activity in comparison to GA (Therapeutic activity (Analogs) − Therapeutic activity GA),5.989%
same,Therapeutic activity in comparison to J5 (Therapeutic activity (Analogs) − Therapeutic activity (J5)),2.032%
same,Therapeutic activity = % reduction in cumulative clinical disability score,37.3262%
EKPβ^3Kβ^3Vβ^3Eβ^3Aβ^3Yβ^3Kβ^3Aβ^3Aβ^3Aβ^3Aβ^3Pβ^3Aβ^3 [Analog S13],Therapeutic activity in comparison to GA (Therapeutic activity (Analogs) − Therapeutic activity GA),24.71%
same,Therapeutic activity in comparison to J5 (Therapeutic activity (Analogs) − Therapeutic activity (J5)),20.75%
same,Therapeutic activity = % reduction in cumulative clinical disability score,56.04%
EKPKVEAYβ^3Kβ^3Aβ^3Aβ^3Aβ^3Aβ^3Pβ^3Aβ^3 [Analog S8],Therapeutic activity in comparison to GA (Therapeutic activity (Analogs) − Therapeutic activity GA),23.85%
same,Therapeutic activity in comparison to J5 (Therapeutic activity (Analogs) − Therapeutic activity (J5)),19.89%
same,Therapeutic activity = % reduction in cumulative clinical disability score,55.19%
KVEAβYβKβAβAβAβAβ [Analog S61],Therapeutic activity in comparison to GA (Therapeutic activity (Analogs) − Therapeutic activity GA),8.6631%
same,Therapeutic activity in comparison to J5 (Therapeutic activity (Analogs) − Therapeutic activity (J5)),4.706%
same,Therapeutic activity = % reduction in cumulative clinical disability score,40%
EβKβPKβVβEβAβYβKβAβAβAβAβPAβ [Analog S53],Therapeutic activity in comparison to GA (Therapeutic activity (Analogs) − Therapeutic activity GA),0.2139%
same,Therapeutic activity in comparison to J5 (Therapeutic activity (Analogs) − Therapeutic activity (J5)),−3.743%
same,Therapeutic activity = % reduction in cumulative clinical disability score,31.5508%
KVEAYβ^3Kβ^3Aβ^3Aβ^3Aβ^3Aβ^3 [Analog S22],Therapeutic activity in comparison to GA (Therapeutic activity (Analogs) − Therapeutic activity GA),17.43%
same,Therapeutic activity in comparison to J5 (Therapeutic activity (Analogs) − Therapeutic activity (J5)),13.48%
same,Therapeutic activity = % reduction in cumulative clinical disability score,48.77%
